These results are taken from patent US10537567B2, “Kinase inhibitors for treatment of disease” (BioAxone BioSciences, Inc., priority 2017, dated 2020).

The target in data set [1] is T1, PKC Δ (Homo sapiens, UniProt Q05655).
T1 construct: are incubated with DNA-tagged kinase domains tagged; DNA tag; purchased DiscoverX
Briefly: DiscoverX kinome screen. In kind it is binding. The settings on record: 10,000 nM API. On the procedure:
(§1) A 468-target kinome screen and a safety screen were carried out to examine the off-target profiles of different kinase inhibitors (DiscoverX, Freemont, Calif.). The kinome screen is a binding assay where API interference of kinase domain/substrate binding is assessed as percent of control. Less than 10% binding (or >90% binding inhibition) is most biologically relevant and considered as a ‘hit’. BA-2017 only had 7 off-target hits compared to BA-1049 and Netarsudil, which both had 11 hits (Table 1) (Studirvant et al. 2016 Bioorg Med Chem Lett. 26(10):2475-2480). […] Published data for Netarsudil were with 200 times less API. […] The NET activity likely helps to decrease IOP but might increase hyperemia, while the SERT activity might have long-term safety consequences (Costagliola et al. 2004 CNS drugs 18(8): p. 475-484).
(§2) In the kinome screen BA-2017 had fewer off-target hits (Table 1) than BA-1049. […] An interesting hit from the kinome screen was on Abl (Table 1), an oncogene that also regulates many cellular activities, including vascular leakage.

Data set [2] addresses T2, PKC ε (Homo sapiens, UniProt Q02156).
T2 construct: are incubated with DNA-tagged kinase domains tagged; DNA tag; purchased DiscoverX
Briefly: DiscoverX kinome screen. Format: binding. The settings on record: 10,000 nM API. On the procedure: as §1, §2

For data set [3], the target named is T3, GRK1 (Homo sapiens, UniProt Q15835).
T3 construct: are incubated with DNA-tagged kinase domains tagged; DNA tag; purchased DiscoverX
T3 sequence (Q15835 190-455 limits assumed): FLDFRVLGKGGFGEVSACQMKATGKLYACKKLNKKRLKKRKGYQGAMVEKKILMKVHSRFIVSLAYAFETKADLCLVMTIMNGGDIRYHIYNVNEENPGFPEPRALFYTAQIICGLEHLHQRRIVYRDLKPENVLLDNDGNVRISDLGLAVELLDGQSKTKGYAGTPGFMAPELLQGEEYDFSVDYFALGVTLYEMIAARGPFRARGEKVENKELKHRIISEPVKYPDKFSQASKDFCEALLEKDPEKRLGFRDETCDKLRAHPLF
Kind of data set: DiscoverX kinome screen. In kind it is binding. On the procedure:
as §1, §2

Data set [4] deals with GPCRs, transporters, ion channels, nuclear receptors, non-kinase enzymes. Kind of data set: Safety screen of 88 targets. On the set-up: species or system human. The settings on record: agonistic or antagonistic. The source says:
These targets include GPCRs, transporters, ion channels, nuclear receptors, non-kinase enzymes.

The nature of data set [5]: Total body irradiation (TBI) mouse model, GI histopathology. In kind it is in vivo, mice. The settings on record: dosing for three days, 3 days after irradiation. On the procedure:
At day 0, TBI is carried out at a lethal dose of 8.0 Gy (Harlan mice) or 9.0 Gy (Coats mice)-doses that are expected to cause death in about 90% of animals within 30 days. […] Mice are monitored for survival up to day 30. During this period, mice were deprived of all supportive care, including antibiotics, to increase the stringency of the survival protocol. Survival is assessed with Kaplan-Meir curves. […] Mice are euthanized at 3 days and GI tissue is paraffin-embedded, sectioned and immunolabeled with rabbit anti-mouse leucine-rich-repeat-containing G-protein-coupled receptor 5 (LGR5), a GI stem cell marker that is expressed upon GI injury.

Data set [6] deals with cellular ROCK activity. Kind of data set: pMLC2 immunoblot dose-response in human trabecular meshwork cells. The settings on record: serum starved TM cells, 1 hour treatment. Format: cell-based. On the procedure: To quantify the inhibitory effect of the compounds the TM cells were serum starved and treated for 1 hour with the indicated compound concentration and then lysed and extracted for SDS-PAGE and immunoblotting for phosphorylated myosin light chain kinase 2 (pMLC2), which is a biomarker for cellular ROCK activity.
(In general: In western blotting, separated proteins are transferred to a membrane and probed.)

For data set [7], the system named is cultured primary cortical neurons. Briefly: Beta-amyloid and phosphorylated Tau in cortical neurons from 3×-Tg AD mice. In kind it is cell-based. Conditions: 1, 10 or 50 μM, 24 or 48 hours. The source says:
Alzheimer's disease is the most common cause of dementia in the population. Pathologic hallmarks of the disease include the presence in the brain of beta-amyloid bearing plaques and neurofibrillary tangles containing hyperphosphorylated microtubule-associated protein Tau. The 3×-Tg AD mouse model was developed to serve as a rodent model for the development of the biochemical hallmarks of human Alzheimer's disease. This mouse strain harbors 3 transgenes encoding mutant Presenilin-1 (PS1), human Swedish mutant Amyloid Precursor Protein (APP-Swe), and mutant P301L-Tau and is obtained from Jackson Laboratories (Bar Harbor, Me.). […] Similarly, Cancino et al (Cancino et al.; Neurobiol. Aging; 2011; 32:1249) identified the role of increased c-Abl kinase activity in transgenic AD model mice to direct increased phosphorylation of Tau.
Whole brain cortices from one day old (P1) 3×-Tg AD mice (Jackson Labs) are dissected and then dissociated using trypsinization and trituration before being cultured under serum free conditions (NeuroBasal Medium plus B27 supplements; Thermo-Fisher) on dishes pre-coated with poly-ornithine and laminin as growth substrate. The cultures are plated in 24 well tissue culture plates, with 100 to 200,000 cells per well at plating. Cultures are maintained for 5 to 7 days, with half-volume medium changes every other day, before testing of inhibitor treatments. […] Protein extracts are prepared in RIPA buffer and protein concentrations in each extract are determined using the Pierce BCA assay (Pierce Biotechnology). Equivalent amounts of protein from each extract are separated on 4-12% polyacrylamide Bis-Tris gels run in MES buffer (Thermo-Fisher). After transferring to PVDF membranes, the Western blots are processed to examine the levels of beta-amyloid precursor protein (βPAPP), the peptide β-amyloid (Aβ), and levels of both phosphorylated and total tau protein.
For these Western blotting experiments, hyperphosphorylated Tau is detected using antibody AT8-phospho-Ser-202/Thr-205 (Pierce Biotechnology, Rockford, Ill.); total phosphorylated and nonphosphorylated tau is detected with Tau5 antibody (Calbiochem, San Diego, Calif.); total PAPP is detected using monoclonal antibody 22C11 (EMD-Millipore) and Aβ peptide levels are detected using monoclonal antibody 6E10 (BioLegend; San Diego, Calif.). The form of Aβ present can be estimated by comparison to purified Aβ 1-40, 1-42 peptides (AnaSpec; Fremont, Calif.) run as standards on companion gels.

For data set [8], the target named is ROCK1 (Homo sapiens, UniProt Q13464). Briefly: DiscoverX kinome screen. Format: binding. On the set-up: are incubated with DNA-tagged kinase domains tagged; DNA tag; purchased DiscoverX. Conditions: 10,000 nM API. As for the experimental part:
as §1, §2

For data set [9], the target named is ROCK2 (Homo sapiens, UniProt O75116). Kind of data set: DiscoverX kinome screen. In kind it is binding. Conditions: 10,000 nM API. Further details: are incubated with DNA-tagged kinase domains tagged; DNA tag; purchased DiscoverX. As for the experimental part: as §1, §2

Entries after “also recorded” stand apart in the source; their conditions may differ. A value given as a limit tells only on which side of the number the result lay.

T1 sequence (Q05655 349-603 limits assumed, stated change not applied): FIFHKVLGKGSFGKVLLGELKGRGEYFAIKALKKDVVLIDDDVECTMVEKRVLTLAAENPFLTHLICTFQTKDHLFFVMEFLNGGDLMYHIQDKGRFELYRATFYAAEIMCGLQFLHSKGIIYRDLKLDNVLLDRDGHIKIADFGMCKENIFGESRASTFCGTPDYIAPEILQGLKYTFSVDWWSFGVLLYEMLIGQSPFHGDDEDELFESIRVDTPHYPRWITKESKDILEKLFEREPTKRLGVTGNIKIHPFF
Chain of ROCK1 (Q13464 76-338 limits assumed): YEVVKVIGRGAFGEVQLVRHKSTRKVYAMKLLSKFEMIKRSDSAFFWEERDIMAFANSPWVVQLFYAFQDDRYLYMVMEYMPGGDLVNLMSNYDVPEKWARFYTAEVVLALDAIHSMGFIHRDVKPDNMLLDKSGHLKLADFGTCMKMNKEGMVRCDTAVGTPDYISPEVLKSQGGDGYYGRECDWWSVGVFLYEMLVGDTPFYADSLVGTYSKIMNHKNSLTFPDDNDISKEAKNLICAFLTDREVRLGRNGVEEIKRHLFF
Chain of ROCK2 (O75116 92-354 limits assumed): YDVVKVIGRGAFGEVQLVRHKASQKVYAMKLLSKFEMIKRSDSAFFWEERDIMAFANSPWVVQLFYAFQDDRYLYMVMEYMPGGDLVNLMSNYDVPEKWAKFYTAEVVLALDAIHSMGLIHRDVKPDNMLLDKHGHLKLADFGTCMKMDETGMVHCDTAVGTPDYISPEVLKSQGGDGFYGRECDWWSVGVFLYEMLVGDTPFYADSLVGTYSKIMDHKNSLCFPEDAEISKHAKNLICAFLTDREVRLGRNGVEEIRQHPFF
T2 sequence (Q02156 408-668 limits assumed): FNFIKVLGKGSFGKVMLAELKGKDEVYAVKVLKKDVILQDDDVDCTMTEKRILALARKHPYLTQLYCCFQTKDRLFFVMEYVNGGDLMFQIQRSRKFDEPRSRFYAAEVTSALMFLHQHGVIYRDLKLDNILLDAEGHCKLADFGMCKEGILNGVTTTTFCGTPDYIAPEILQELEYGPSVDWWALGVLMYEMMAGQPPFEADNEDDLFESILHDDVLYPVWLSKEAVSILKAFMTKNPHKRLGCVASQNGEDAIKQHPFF

As to `C[C@H](N)C1CCN(S(=O)(=O)c2cccc3c(=O)[nH]ccc23)CC1` [BA-2057], the “Kinome Screen % inhibition PKC Δ” value in data set [1] is given as under 70%. In addition, in [2], the “Kinome Screen % inhibition PKC ε” value is under 70%. The “Off-target activity on GRK1” value in [3] was “neither BA-1076 nor its metabolite, BA-2057, exhibits off-target inhibition of GRK1”. Also, the “Off-target hits in safety screen” value in data set [4] is reported as “no significant off target hits were detected”. Further, in data set [5], the “Radiation-induced jejunal damage (LGR5 expression)” value was “mitigated radiation-induced jejunal damage”. In addition, in [6], the “Reversal of ROCK activation (pMLC2)” value is on record as “more potent than the parent BA-1076”. In addition, in data set [7], the “Accumulation of phosphorylated forms of Tau protein” value is reported as “dose-dependent reduction in the accumulation of phosphorylated forms of Tau protein” and the “Production of Aβ peptide” value is reported as “reduced production of Aβ peptide”. Further, the “Kinome Screen % inhibition ROCK1” value in data set [8] is given as over 98%. For the same compound, in data set [9], the “Kinome Screen % inhibition ROCK2” value is over 96%.

On to `C[C@H](N)C1CCN(S(=O)(=O)c2cccc3cnccc23)CC1` [BA-1076], for which the “Kinome Screen % inhibition PKC Δ” value in data set [1] is under 70%. For the same compound, the “Kinome Screen % inhibition PKC ε” value in data set [2] was 86%. In [3], the “Off-target activity on GRK1” value was “does not have this off-target effect; also recorded: neither BA-1076 nor its metabolite, BA-2057, exhibits off-target inhibition of GRK1”. For the same compound, the “Off-target hits in safety screen” value in data set [4] was “no significant off target hits were detected”. The “Radiation-induced jejunal damage (LGR5 expression)” value in data set [5] is “mitigated radiation-induced jejunal damage”. In addition, the “Reversal of ROCK activation (pMLC2)” value in [6] was “showed potency to reverse ROCK activation”. Besides, in [7], the “Accumulation of phosphorylated forms of Tau protein” value is given as “dose-dependent reduction in the accumulation of phosphorylated forms of Tau protein” and the “Production of Aβ peptide” value is “reduced production of Aβ peptide”. The “Kinome Screen % inhibition ROCK1” value in data set [8] is given as over 99%. Further, the “Kinome Screen % inhibition ROCK2” value in data set [9] is recorded as over 99%.
